In brackets after ≈: the same amount, converted by molar mass. Like-named read-outs stand apart in the source and are kept apart here.
Tests used:
S. aureus ATCC 29213 = assay: MIC determination; type: cell-based, Staphylococcus aureus; details: Staphylococcus aureus, read-out: MIC
S. aureus VRS2 = assay: MIC determination; type: cell-based; details: Staphylococcus aureus; vancomycin-resistant MRSA (vanA) isolate from Pennsylvania; Tables 1 and 5; read-out: MIC
Source text: (§1) The ESKAPE organisms (E. faecium NCTC (ATCC 19734), S. aureus ATCC 29213, K. pneumonia ATCC 700603, A. baumannii ATCC 17961, P. aeruginosa ATCC 17853, E. aerogenes ATCC 35029) and E. coli ATCC 25922) in the initial screen, S. aureus ATCC 27660, S. epidermis ATCC 35547, S. haemolyticus ATCC 29970, S. oralis ATCC 9811, S. pyogenes ATCC 49399, B. cereus ATCC 13061, B. licheniformis ATCC 12759, and E. faecalis ATCC 29212 were purchased from the American Type Culture Collection (Manassas, Va., USA). S. aureus strains NRS100, NRS119, NRS120, VRS1, and VRS2 were obtained from the Network on Antimicrobial Resistance in Staphylococcus aureus (Chantilly, Va., USA). E. faecalis strains 201 and 99, and E. faecium strains 119-39A and 106 were collected from Wayne State University School of Medicine.
(§2) The procedure for MIC determination was the same as previously reported (Tran et al., Am. J. Clin. Dermatol. 2015; doi 10.1007/S40257-015-0125-9).

S. aureus NRS100 (COL) = assay: MIC determination; type: cell-based; details: Staphylococcus aureus, mecA positive, resistant to methicillin, oxacillin, tetracycline, Tables 1 and 5, read-out: MIC
Source text: as §1, §2

E. faecium 106 (Van R) = assay: MIC determination; type: cell-based; details: Enterococcus faecium; vancomycin-resistant clinical isolate; Tables 1 and 5; read-out: MIC
Source text: as §1, §2

B. cereus ATCC 13061 = assay: MIC determination; type: cell-based; details: Bacillus cereus, ATCC13061; Tables 1 and 5; read-out: MIC
Source text: as §1, §2

S. aureus ATCC 27660 [1] = assay: MIC determination; type: cell-based; details: Staphylococcus aureus, ATCC27660; mecA positive, resistant to methicillin, oxacillin, tetracycline; Tables 1 and 5; read-out: MIC
Source text: as §1, §2

S. aureus VRS1 = assay: MIC determination; type: cell-based; details: Staphylococcus aureus; vancomycin-resistant MRSA (vanA) isolate from Michigan; Tables 1 and 5; read-out: MIC
Source text: as §1, §2

E. faecalis 201 (Van S) = assay: MIC determination; type: cell-based; details: Enterococcus faecalis; vancomycin-susceptible clinical isolate; Tables 1 and 5; read-out: MIC
Source text: as §1, §2

S. epidermis ATCC 35547 = assay: MIC determination; type: cell-based; details: Tables 1 and 5; read-out: MIC
Source text: as §1, §2

E. faecalis ATCC 29212 = assay: MIC determination; type: cell-based; details: Enterococcus faecalis, ATCC29212; quality-control strain; Tables 1 and 5; read-out: MIC
Source text: as §1, §2

E. faecalis 99 (Van R) = assay: MIC determination; type: cell-based; details: Enterococcus faecalis; vancomycin-resistant clinical isolate; Tables 1 and 5
Source text: as §1, §2

S. aureus NRS120 = assay: MIC determination; type: cell-based; details: Staphylococcus aureus, mecA positive, linezolid-resistant, Tables 1 and 5, read-out: MIC
Source text: as §1, §2

[2] = system: B. licheniformis ATCC 12759; assay: MIC determination; type: cell-based; details: Bacillus licheniformis, ATCC12759; Tables 1 and 5; read-out: MIC
Source text: as §1, §2

S. aureus NRS119 = assay: MIC determination; type: cell-based; details: Staphylococcus aureus, mecA positive, linezolid-resistant, Tables 1 and 5, read-out: MIC
Source text: as §1, §2

[3] = system: S. haemolyticus ATCC 29970; assay: MIC determination; type: cell-based; details: Staphylococcus haemolyticus, ATCC29970; Tables 1 and 5; read-out: MIC
Source text: as §1, §2

[4] = system: E. faecium 119-39A (Van S); assay: MIC determination; type: cell-based; details: Enterococcus faecium; vancomycin-susceptible clinical isolate; Tables 1 and 5; read-out: MIC
Source text: as §1, §2

E. faecium C68 = assay: MIC determination; type: cell-based; details: Enterococcus faecium, vancomycin-resistant clinical strain from Cleveland hospitals, Table 5
Source text: as §2

[5] = cited from earlier work
E. faecium NCTC 7171 = assay: MIC determination; type: cell-based, Enterococcus faecium; details: Enterococcus faecium, NCTC7171; Table 1; read-out: MIC
S. oralis ATCC 9811 = assay: MIC determination; type: cell-based; details: Streptococcus oralis, ATCC9811; Table 1; read-out: MIC
Source text: as §1, §2

S. pyogenes ATCC 49399 = assay: MIC determination; type: cell-based; details: Streptococcus pyogenes, ATCC49399; Table 1; read-out: MIC
Source text: as §1, §2

S. aureus ATCC 27660 [6] = assay: Mouse peritonitis model of infection; type: in vivo; details: po, single dose given at 1 h after infection
Procedure: Compounds 60b, 60c, 65b, 66b, 75b and 76b were evaluated in the mouse peritonitis model of infection (Table 2). We used the ICR out-bred strain of mice that provides a heterogeneous population, similar to the human situation, thus, ensuring the relevance of the antibacterial effect. This animal model of infection is widely used, it is easy to carry out, and the end points (death or survival) are rapidly assessed, making it less resource-intensive compared to other infection models. In addition, excellent correlation between MIC and ED50 has been shown for 14 β-lactam antibiotics using this model (Kratochwil et al., Biochem. Pharmacol. 2002, 64, 1355). The mouse peritonitis infection model continues to be an important model for evaluation of the efficacy of antibiotics against human pathogens. We use the iv route of administration in initial efficacy studies, as this allows us to test the efficacy without knowledge of the oral bioavailability of the lead. Evaluation was done at 20 mg/kg.
Female ICR mice (6-8 weeks old, ˜20-g body weight) were used for the PK and peritonitis studies. Animals were purchased from Harlan Laboratories, Inc. (Indianapolis, Ind., USA) and given Teklad 2019 Extruded Rodent Diet and water ad libitum. Mice were maintained in polycarbonate shoebox cages with ¼″ corncob (The Andersons Inc., Maumee, Ohio) and Alpha-dri (Sheperd Specialty Papers, Inc., Richland, Mich.) bedding under 12-h light/12-h dark cycle at 72±2° F.
The mouse peritonitis model was used with S. aureus ATCC 27660, as described previously (Tran et al., Am. J. Clin. Dermatol. 2015; doi 10.1007/S40257-015-0125-9). The final bacterial inocula contained 5×10^7 cfu/mL and 5% mucin (Sigma-Aldrich Chemical Co., St Louis, Mo., USA). Just prior to inoculation, bacteria at 10^8 cfu/mL were mixed 1:1 with 10% mucin. Mice (n=6 per group) were given 0.5 mL of the bacterial inocula intraperitoneally. Mice were given two iv doses of the compounds at 30 min and 7.5 h after infection by tail vein injection. […] Mice were monitored for 48 h, at which time the number of surviving mice were counted.
The effective dose that results in survival of 50% of the mice was determined using Probit analysis (XLSTAT, New York, N.Y.). Groups of six mice per dose level were evaluated in the mouse peritonitis infection model at iv doses of 2.5, 5, 7.5, 10, 15, and 20 mg/kg and after po doses at 2.5, 5, 10, 20, and 40 mg/kg. […]

[7] = ATCC29213, S. aureus ATCC29213, second numbering, compounds of Scheme 6
[8] = ATCC29213, quality-control, methicillin-susceptible strain, Tables 1 and 5

Row | Structure (SMILES) | MIC (S. aureus ATCC 29213; [7]) [µg/mL] | MIC (S. aureus ATCC 29213; [8]) [µg/mL] | MIC (S. aureus VRS2) [µg/mL] | MIC (S. aureus NRS100 (COL)) [µg/mL] | MIC (E. faecium 106 (Van R)) [µg/mL] | MIC (B. cereus ATCC 13061) [µg/mL] | MIC (S. aureus ATCC 27660 [1]) [µg/mL] | MIC (S. aureus VRS1) [µg/mL] | MIC (E. faecalis 201 (Van S)) [µg/mL] | MIC (S. epidermis ATCC 35547) [µg/mL] | MIC (E. faecalis ATCC 29212) [µg/mL] | MIC (E. faecalis 99 (Van R)) [µg/mL] | MIC (S. aureus NRS120) [µg/mL] | MIC [2] [µg/mL] | MIC (S. aureus NRS119) [µg/mL] | MIC [3] [µg/mL] | MIC [4] [µg/mL] | MIC (E. faecium C68) [µg/mL] | further results
1 | Oc1ccc(-c2nc(-c3ccc(Oc4ccccc4)cc3Cl)no2)cc1 [Compound 52a, 4-(3-(2-chloro-4-phenoxyphenyl)-1,2,4-oxadiazol-5-yl)phenol] | 2 (≈ 5.48 µM) | 2 (≈ 5.48 µM) | 2 (≈ 5.48 µM) | 8 (≈ 21.9 µM) | 4 (≈ 11 µM) | 4 (≈ 11 µM) | 8 (≈ 21.9 µM) | 2 (≈ 5.48 µM) | 4 (≈ 11 µM) | 4 (≈ 11 µM) | 4 (≈ 11 µM) | 4 (≈ 11 µM) | 4 (≈ 11 µM) | 2 (≈ 5.48 µM) | 4 (≈ 11 µM) | 4 (≈ 11 µM) | 4 (≈ 11 µM) | 4 (≈ 11 µM) | –
2 | Cc1onc(-c2ccccc2)c1C(=O)N[C@@H]1C(=O)N2[C@@H]1SC(C)(C)[C@@H]2C(=O)O [oxacillin] | – | – | – | – | – | – | – | – | – | – | – | – | – | – | – | – | – | – | Plasma protein binding [5]: > 91%
3 | CC(=O)NC[C@H]1CN(c2ccc(N3CCOCC3)c(F)c2)C(=O)O1 [linezolid, reference compound] | – | 4 (≈ 11.9 µM) | 2 (≈ 5.93 µM) | 2 (≈ 5.93 µM) | 1 (≈ 2.96 µM) | 1 (≈ 2.96 µM) | 2 (≈ 5.93 µM) | 2 (≈ 5.93 µM) | 2 (≈ 5.93 µM) | 1 (≈ 2.96 µM) | 2 (≈ 5.93 µM) | 1 (≈ 2.96 µM) | 32 (≈ 94.9 µM) | 1 (≈ 2.96 µM) | 32 (≈ 94.9 µM) | 2 (≈ 5.93 µM) | 2 (≈ 5.93 µM) | – | MIC (E. faecium NCTC 7171): 2 µg/mL (≈ 5.93 µM); MIC (S. oralis ATCC 9811): 1 µg/mL (≈ 2.96 µM); MIC (S. pyogenes ATCC 49399): 1 µg/mL (≈ 2.96 µM); ED50 (S. aureus ATCC 27660 [6]; Staphylococcus aureus, ATCC27660, read-out: ED50): 2.8 mg/kg; ED50 (S. aureus ATCC 27660 [6]): 2.8 mg/kg
4 | Oc1ccc(-c2nc(-c3ccc(Oc4ccccc4)c(O)c3)no2)cc1 [Compound 51a, 5-(5-(4-hydroxyphenyl)-1,2,4-oxadiazol-3-yl)-2-phenoxyphenol] | 2 (≈ 5.77 µM) | 2 (≈ 5.77 µM) | 8 (≈ 23.1 µM) | 16 (≈ 46.2 µM) | 8 (≈ 23.1 µM) | 8 (≈ 23.1 µM) | 16 (≈ 46.2 µM) | 8 (≈ 23.1 µM) | 8 (≈ 23.1 µM) | 16 (≈ 46.2 µM) | 8 (≈ 23.1 µM) | 16 (≈ 46.2 µM) | 8 (≈ 23.1 µM) | 16 (≈ 46.2 µM) | 8 (≈ 23.1 µM) | 8 (≈ 23.1 µM) | 8 (≈ 23.1 µM) | 8 (≈ 23.1 µM) | –
